For test [1], the system named is Escherichia coli. In words: Antibacterial activity against Escherichia coli ATCC 25922 after 24 hr by disk diffusion method. It counts as functional, organism-based. (In general: A growth-free zone around the sample is the usual read-out of agar diffusion tests.)
Another test has as its system Bacillus cereus. Briefly: Antibacterial activity against Bacillus cereus NRLL B-3008 after 24 hr by disk diffusion method. The format is functional, organism-based.
Test [2] concerns Escherichia coli. In words: Covalent binding to Escherichia coli pBR322 DNA assessed as disappearance of form 2 DNA at low concentration after 24 hr by agarose gel electrophoresis.
The subject of another test is Candida tropicalis. In words: Antifungal activity against Candida tropicalis ATCC 13803 after 72 hr by disk diffusion method. It counts as functional, organism-based.
Another test has as its system Pseudomonas aeruginosa. Briefly: Antibacterial activity against Pseudomonas aeruginosa ATCC 27853 after 24 hr by disk diffusion method. It counts as functional, organism-based.
For a further test, the system named is Bacillus subtilis. In words: Antibacterial activity against Bacillus subtilis […] after 24 hr by disk diffusion method. It counts as functional, organism-based.
A further test has as its system Candida albicans. In words: Antifungal activity against Candida albicans ATCC 10231 after 72 hr by disk diffusion method. It counts as functional, organism-based.
The next test concerns Proteus vulgaris. Briefly: Antibacterial activity against Proteus vulgaris ATCC 8427 after 24 hr by disk diffusion method. It counts as functional, organism-based.
In the next test the test system is Enterococcus faecalis. Briefly: Antibacterial activity against Enterococcus faecalis […] after 24 hr by disk diffusion method. It counts as functional, organism-based.
Test [3] concerns Escherichia coli. In words: Covalent binding to Escherichia coli pBR322 DNA Guanine-guanine site assessed as inhibition of BamH1-mediated restriction digestion at 1250 uM by restriction endonuclease analysis.
The test system of test [4] is Escherichia coli. In words: Covalent binding to Escherichia coli pBR322 DNA adenine-adenine site assessed as inhibition of Hind3-mediated restriction digestion at 1250 uM by restriction endonuclease analysis.
In test [5] the test system is Escherichia coli. Briefly: Binding affinity to Escherichia coli pBR322 DNA assessed as decrease in mobility of form 1 DNA at low concentration after 24 hr by agarose gel electrophoresis.
Test [6] concerns Escherichia coli. Briefly: Antibacterial activity against Escherichia coli ATCC 35218 after 24 hr by disk diffusion method. The format is functional, organism-based.
A further test relates to Staphylococcus aureus. Briefly: Antibacterial activity against Staphylococcus aureus ATCC 25923 after 24 hr by disk diffusion method. The format is functional, organism-based.
Test [7] deals with Escherichia coli. Briefly: Covalent binding to Escherichia coli pBR322 DNA assessed as disappearance of form 2 DNA at high concentration after 24 hr by agarose gel electrophoresis.
For test [8], the system named is Escherichia coli. In words: Covalent binding to Escherichia coli pBR322 DNA assessed as increase in mobility of form 1 DNA at high concentration after 24 hr by agarose gel electrophoresis.
Test [9] concerns Escherichia coli. In words: Binding affinity to Escherichia coli pBR322 DNA assessed as appearance of DNA fragments at low concentration after 24 hr by agarose gel electrophoresis.
Test [10] relates to Escherichia coli. Briefly: Binding affinity to Escherichia coli pBR322 DNA assessed as appearance of DNA fragments at high concentration after 24 hr by agarose gel electrophoresis.
In test [11] the test system is Escherichia coli. In words: Covalent binding to Escherichia coli pBR322 DNA assessed as decrease in intensity of form 2 DNA at low concentration after 24 hr by agarose gel electrophoresis.
Test [12] deals with Escherichia coli. In words: Covalent binding to Escherichia coli pBR322 DNA assessed as increase in intensity of form 1 DNA at low concentration after 24 hr by agarose gel electrophoresis.

The structures appear in SMILES notation. The source made the active and inactive calls. The calls are words filed in the database; no cut-off is given here.

`CCCCCCn1cnc2c(Sc3nnnn3C)ncnc21`: the result in the test with Escherichia coli [1], in the test on Bacillus cereus, in the test on Candida tropicalis, with Pseudomonas aeruginosa, in the test with Bacillus subtilis and in the test with Candida albicans was inactive. The outcome in the test with Proteus vulgaris, with Enterococcus faecalis, in the test with Escherichia coli [6] and in the test with Staphylococcus aureus was inactive. Also, the result with Escherichia coli [2], in the test on Escherichia coli [3], with Escherichia coli [4] and in the test with Escherichia coli [5] was Active.
For `CCn1cnc2c(Sc3nnnn3C)ncnc21`, the outcome with Escherichia coli [1], in the test with Bacillus cereus, in the test on Candida tropicalis, with Pseudomonas aeruginosa, with Bacillus subtilis and with Candida albicans was inactive. The outcome in the test on Proteus vulgaris, in the test on Enterococcus faecalis, in the test on Escherichia coli [6] and in the test on Staphylococcus aureus was inactive. Moreover, the outcome with Escherichia coli [7], with Escherichia coli [8], in the test on Escherichia coli [3] and in the test with Escherichia coli [4] was Active.
For `CCCn1cnc2c(Nc3nnn[nH]3)ncnc21`, the result in the test on Escherichia coli [1], in the test with Bacillus cereus, in the test with Candida tropicalis, in the test on Pseudomonas aeruginosa, with Bacillus subtilis and in the test on Candida albicans was inactive. The result in the test with Proteus vulgaris, in the test with Enterococcus faecalis, with Escherichia coli [3], in the test on Escherichia coli [6] and with Staphylococcus aureus was inactive. Further, the outcome with Escherichia coli [9], in the test on Escherichia coli [4] and in the test with Escherichia coli [5] was Active.
Turning to `Cn1nnnc1Sc1ncnc2c1ncn2Cc1ccccc1`, the result in the test on Escherichia coli [1], in the test on Bacillus cereus, with Candida tropicalis, in the test on Pseudomonas aeruginosa, in the test on Bacillus subtilis and in the test with Candida albicans was inactive. In addition, the outcome with Proteus vulgaris, in the test on Enterococcus faecalis, in the test with Escherichia coli [6] and in the test with Staphylococcus aureus was inactive. Besides, the result with Escherichia coli [10], with Escherichia coli [7], in the test with Escherichia coli [3] and in the test on Escherichia coli [4] was Active.
Consider `Cn1nnnc1Sc1ncnc2c1ncn2CC1CCC1`, for which the outcome in the test on Escherichia coli [1], in the test on Bacillus cereus, with Candida tropicalis, in the test with Pseudomonas aeruginosa, in the test on Bacillus subtilis and in the test on Candida albicans was inactive. Moreover, the result in the test on Proteus vulgaris, with Enterococcus faecalis, in the test on Escherichia coli [6] and with Staphylococcus aureus was inactive. Also, the outcome in the test with Escherichia coli [10], with Escherichia coli [7], in the test on Escherichia coli [3] and with Escherichia coli [4] was Active.
`Cn1nnnc1Sc1ncnc2c1ncn2C`: the outcome in the test on Escherichia coli [1], in the test on Bacillus cereus, in the test on Candida tropicalis, in the test on Pseudomonas aeruginosa, with Bacillus subtilis and in the test on Candida albicans was inactive. Also, the result in the test with Proteus vulgaris, in the test with Enterococcus faecalis, in the test on Escherichia coli [6] and in the test on Staphylococcus aureus was inactive. Further, the result in the test on Escherichia coli [8], in the test with Escherichia coli [3] and in the test with Escherichia coli [4] was Active.
On to `Cn1nnnc1Sc1ncnc2c1ncn2CC1CCCCC1`, for which the outcome with Escherichia coli [1], in the test with Bacillus cereus, in the test with Candida tropicalis, in the test on Pseudomonas aeruginosa, in the test with Bacillus subtilis and in the test with Candida albicans was inactive. Further, the result with Proteus vulgaris, in the test with Enterococcus faecalis, in the test on Escherichia coli [6] and in the test with Staphylococcus aureus was inactive. Also, the outcome in the test with Escherichia coli [9], in the test on Escherichia coli [3], in the test with Escherichia coli [4], in the test with Escherichia coli [11] and in the test on Escherichia coli [12] was Active.

The record behind these values is ChEMBL document CHEMBL3046837, “Synthesis of some novel amino and thiotetrazole purine derivatives and investigation of their antimicrobial activity and DNA interactions” (Med Chem Res, 2013).
